These results are taken from PMC10681040 (Bioorganic chemistry, 2023).

human nCDase (extracellular region, residues 99–780), sequence (Q9NR71 99-780): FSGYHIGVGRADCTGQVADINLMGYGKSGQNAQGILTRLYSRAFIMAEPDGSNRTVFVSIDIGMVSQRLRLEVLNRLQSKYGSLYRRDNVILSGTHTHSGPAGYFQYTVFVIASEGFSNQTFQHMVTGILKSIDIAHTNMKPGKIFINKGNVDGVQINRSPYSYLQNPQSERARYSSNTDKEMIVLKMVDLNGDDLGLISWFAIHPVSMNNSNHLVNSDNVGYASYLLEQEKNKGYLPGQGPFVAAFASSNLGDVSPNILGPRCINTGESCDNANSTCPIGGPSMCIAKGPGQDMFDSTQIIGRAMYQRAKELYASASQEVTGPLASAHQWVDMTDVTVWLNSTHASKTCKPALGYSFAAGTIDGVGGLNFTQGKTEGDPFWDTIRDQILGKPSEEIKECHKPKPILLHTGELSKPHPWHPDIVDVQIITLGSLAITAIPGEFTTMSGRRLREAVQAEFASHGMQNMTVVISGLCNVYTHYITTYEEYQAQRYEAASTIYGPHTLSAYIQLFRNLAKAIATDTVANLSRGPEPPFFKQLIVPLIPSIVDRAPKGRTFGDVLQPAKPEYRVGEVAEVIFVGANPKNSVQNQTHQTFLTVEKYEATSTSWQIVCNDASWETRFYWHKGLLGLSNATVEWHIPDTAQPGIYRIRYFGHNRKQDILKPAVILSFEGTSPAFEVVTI

This assay addresses human nCDase (extracellular region, residues 99–780) (Homo sapiens, UniProt Q9NR71). The experiment in a line: RBM biochemical nCDase enzymatic activity assay. To be noted: qualitative; data not shown for valproate, anacardamate, MG149.
As to `CCCCCCCc1ccc(CCc2cccc(O)c2C(=O)O)cc1` [MG149], the “nCDase inhibitory activity (in words)” value is reported as “exhibited nCDase inhibitory activity”. Take `CC(/C=C/C(=O)NO)=C\[C@@H](C)C(=O)c1ccc(N(C)C)cc1` [Trichostatin A]: the “nCDase inhibitory activity (in words)” value is on record as “nCDase inhibitory activity”. As to `CCCC(CCC)C(=O)O` [valproate], the “nCDase inhibitory activity (in words)” value is on record as “exhibited nCDase inhibitory activity”. In the case of anacardamate, the “nCDase inhibitory activity (in words)” value is “exhibited nCDase inhibitory activity”.
